Experimental findings from patent US12466821B2 (Novartis AG, priority 2018, dated 2025) are described below.

In assay [1] the test system is Luciferase-encoding HCMV, AD169 strain. The assay can be described thus: CMV Luciferase assay (cellular herpesvirus replication). It is filed as cell-based. Put shortly:
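Reporter HCMV AD169 with luciferase driven by late pp28 promoter, so signal requires viral DNA replication; NN-NHDF fibroblasts in 2% FBS medium, compound (0.0159–50 or 0.00318–10 μM, 0.5% DMSO) added 1 h before infection at MOI 1. Luminescence read 72 hpi; EC50 from 4-parameter fit of control-normalized %.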

For assay [2], the target named is human HSV DNA polymerase UL30 (Human herpesvirus 1 (strain 17) (HHV-1) (Human herpes simplex virus 1), UniProt P04293). The assay can be described thus: HSV polymerase biochemical assay (molecular beacon-based). Put shortly:
(§1)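 Full-length wild-type N-terminal MBP-fusion polymerases from sf9 cells were used at 100 pM (CMV) or 625 pM (HSV) in Tris pH 7.5, 10 mM MgCl2, and preincubated with inhibitor for 30 min at RT. Reactions with 1.25 uM each dNTP, 200 nM primer and 100 nM molecular beacon ran 60 min (CMV) or 20 min (HSV) at RT. Fluorescence was read at 480/535 nm and IC50 derived.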

The target in assay [3] is human CMV DNA polymerase UL54 (Human cytomegalovirus (strain AD169) (HHV-5) (Human herpesvirus 5), UniProt P08546). The assay can be described thus: CMV polymerase biochemical assay (molecular beacon-based). Put shortly:
as §1

[4] abbreviates: Human betaherpesvirus 5, AD169, read-out: CMV-Luc Cellular EC50.
Setting [5] is: read-out: CMV-Luc Cellular EC50.

Molecules are shown by their SMILES. Like-named read-outs stand apart in the source and are kept apart here.

Take `CC(=O)NS(=O)(=O)C1(CN2CCn3c(ccc(C(=O)NCc4ccc(C#N)cc4)c3=O)C2=O)CC1` [Example 73-3]: in assay [1] (setting [4]), the half-maximal effective concentration (EC50) was found to be 9310 nM. In addition, the IC50 in assay [2] is 45.9 nM; in assay [3], 1.6 nM.

With `CN(C(C)(C)C)S(=O)(=O)C1(CN2CCn3c(ccc(C(=O)NCc4ccc(Cl)cc4)c3=O)C2=O)CC1` [Example 74-1], the EC50 in assay [1] (setting [4]) was 13.7 nM. Moreover, the half-maximal inhibitory concentration (IC50) was 22.7 nM in assay [2] and 0.4 nM in assay [3].

On to `CNS(=O)(=O)C1(CN2CCn3c(ccc(C(=O)NCc4ccc(Cl)cc4)c3=O)C2=O)CC1` [Example 74-2], for which the 50% effective concentration (EC50) in assay [1] (setting [4]) is 14.5 nM. In addition, the 50% inhibitory concentration (IC50) in assay [2] was 52.1 nM; in assay [3], 1.6 nM.

Consider `CN(C(C)(C)C)S(=O)(=O)C1(CN2CCn3c(ccc(C(=O)NCc4ccc(C#N)cc4)c3=O)C2=O)CC1` [Example 75-1], for which, in assay [1] (setting [4]), the EC50 came out at 35.6 nM. The concentration for half-maximal inhibition (IC50) in assay [2] turned out to be 45.9 nM; in assay [3] it was 1.1 nM.

`CNS(=O)(=O)C1(CN2CCn3c(ccc(C(=O)NCc4ccc(C#N)cc4)c3=O)C2=O)CC1` [Example 75-2]: in assay [1] (setting [4]), the EC50 was found to be 62.2 nM. Also, the half-maximal inhibitory concentration (IC50) stood at 77.3 nM in assay [2] and 2.7 nM in assay [3].

In the case of `O=C(NCc1ccc(Cl)cc1)c1ccc2n(c1=O)CCN(CC1(S(=O)(=O)C3(F)CC3)CC1)C2=O` [Example 76, N-(4-chlorobenzyl)-2-((1-((1-fluorocyclopropyl)sulfonyl)cyclopropyl)methyl)-1,6-dioxo-2,3,4,6-tetrahydro-1H-pyrido[1,2-a]pyrazine-7-carboxamide], the EC50 in assay [1] (setting [4]) was determined as 46.9 nM. Further, the concentration for half-maximal inhibition (IC50) worked out at 59.5 nM in assay [2] and 1.9 nM in assay [3].

In the case of `N#Cc1ccc(CNC(=O)c2ccc3n(c2=O)CCN(CC2(S(=O)(=O)C4(F)CC4)CC2)C3=O)cc1` [Example 77-1, N-(4-cyanobenzyl)-2-((1-((1-fluorocyclopropyl)sulfonyl)cyclopropyl)methyl)-1,6-dioxo-2,3,4,6-tetrahydro-1H-pyrido[1,2-a]pyrazine-7-carboxamide], the EC50 in assay [1] (setting [4]) was 126 nM. For the same molecule, the half-inhibitory concentration (IC50) in assay [2] was 95.4 nM; in assay [3] it was 3.2 nM.

In the case of `N#Cc1ccc(CNC(=O)c2ccc3n(c2=O)CCN(CC2(S(=O)(=O)C4(F)CC4)CC2)C3=O)cc1F` [Example 77-2], the EC50 in assay [1] (setting [4]) stood at 57.7 nM. Also, the IC50 in assay [2] came out at 77.2 nM; in assay [3], 1.9 nM.

Consider `O=C(NCc1ccc(Cl)cc1)c1ccc2n(c1=O)CCN(CC1(S(=O)(=O)C3CCC3)CC1)C2=O` [Example 78, N-(4-chlorobenzyl)-2-((1-(cyclobutylsulfonyl)cyclopropyl)methyl)-1,6-dioxo-2,3,4,6-tetrahydro-1H-pyrido[1,2-a]pyrazine-7-carboxamide], for which the concentration for a half-maximal effect (EC50) in assay [1] (setting [4]) turned out to be 15.7 nM. The results for the concentration for half-maximal inhibition (IC50) in assay [2] and in assay [3] were 30 nM and 1 nM, respectively.

Consider `N#Cc1ccc(CNC(=O)c2ccc3n(c2=O)CCN(CC2(S(=O)(=O)C4CCC4)CC2)C3=O)cc1` [Example 79-1], for which the concentration for a half-maximal effect (EC50) in assay [1] (setting [4]) turned out to be 33.7 nM. In addition, the IC50 in assay [2] was 33.4 nM; in assay [3] it was 1.3 nM.

Consider `N#Cc1ccc(CNC(=O)c2ccc3n(c2=O)CCN(CC2(S(=O)(=O)C4CCC4)CC2)C3=O)cc1F` [Example 79-2], for which the concentration giving a half-maximal response (EC50) in assay [1] (setting [4]) came out at 34.3 nM. In addition, the IC50 in assay [2] worked out at 65.4 nM; in assay [3] it was 2 nM.

In the case of `O=C(NCc1ccc(Cl)cc1)c1ccc2n(c1=O)CCN(CC1(S(=O)(=O)C3CCNC3)CC1)C2=O` (stereo not drawn) [Example 80-1, N-(4-chlorobenzyl)-1,6-dioxo-2-((1-(pyrrolidin-3-ylsulfonyl)cyclopropyl)methyl)-2,3,4,6-tetrahydro-1H-pyrido[1,2-a]pyrazine-7-carboxamide], in assay [1] (setting [4]), the EC50 amounted to 216 nM. Further, the IC50 in assay [2] stood at 97.6 nM; in assay [3], 3.4 nM.

As for `CN1CCC(S(=O)(=O)C2(CN3CCn4c(ccc(C(=O)NCc5ccc(Cl)cc5)c4=O)C3=O)CC2)C1` (stereo not drawn) [Example 80-2, N-(4-chlorobenzyl)-2-((1-((1-methylpyrrolidin-3-yl)sulfonyl)cyclopropyl)methyl)-1,6-dioxo-2,3,4,6-tetrahydro-1H-pyrido[1,2-a]pyrazine-7-carboxamide], the concentration giving a half-maximal response (EC50) in assay [1] (setting [4]) is 247 nM. Also, the IC50 in assay [2] was determined as 177 nM; in assay [3], 9.7 nM.

For the molecule `N#Cc1ccc(CNC(=O)c2ccc3n(c2=O)CCN(CC2(S(=O)(=O)C4CCNC4)CC2)C3=O)cc1F` (stereo not drawn) [Example 81-1], in assay [1] (setting [4]), the EC50 stood at 1070 nM. For the same molecule, the IC50 in assay [2] is 152 nM; in assay [3], 3.8 nM.

Consider `CN1CCC(S(=O)(=O)C2(CN3CCn4c(ccc(C(=O)NCc5ccc(C#N)c(F)c5)c4=O)C3=O)CC2)C1` (stereo not drawn) [Example 81-2], for which the EC50 in assay [1] (setting [4]) amounted to 486 nM. In addition, the IC50 is 204 nM in assay [2] and 11.3 nM in assay [3].

Take `N#Cc1ccc(CNC(=O)c2ccc3n(c2=O)CCN(CC2(S(=O)(=O)C4CCNC4)CC2)C3=O)cc1` (stereo not drawn) [Example 81-3]: the concentration giving a half-maximal response (EC50) in assay [1] (setting [4]) turned out to be 1190 nM. For the same molecule, the IC50 amounted to 216 nM in assay [2] and 7 nM in assay [3].

Take `CN1CCC(S(=O)(=O)C2(CN3CCn4c(ccc(C(=O)NCc5ccc(C#N)cc5)c4=O)C3=O)CC2)C1` (stereo not drawn) [Example 81-4]: in assay [1] (setting [4]), the EC50 came out at 1080 nM. The IC50 was 474 nM in assay [2] and 23.3 nM in assay [3].

`N#Cc1ccc(CNC(=O)c2ccc3n(c2=O)CCN(CC2CCCS2(=O)=O)C3=O)cc1F` (stereo not drawn) [Example 82, N-(4-cyano-3-fluorobenzyl)-2-((1,1-dioxidotetrahydrothiophen-2-yl)methyl)-1,6-dioxo-2,3,4,6-tetrahydro-1H-pyrido[1,2-a]pyrazine-7-carboxamide]: in assay [1] (setting [4]), the half-maximal effective concentration (EC50) stood at 10000 nM. The IC50 in assay [2] came to 20900 nM; in assay [3], 1090 nM.

Regarding `N#Cc1ccc(CNC(=O)c2ccc3n(c2=O)CCN(CC2(S(=O)(=O)C4CC(F)(F)C4)CC2)C3=O)cc1` [Example 83, N-(4-cyanobenzyl)-2-((1-((3,3-difluorocyclobutyl)sulfonyl)cyclopropyl)methyl)-1,6-dioxo-2,3,4,6-tetrahydro-1H-pyrido[1,2-a]pyrazine-7-carboxamide], the EC50 in assay [1] (setting [4]) was 146 nM. Moreover, the results for the IC50 in assay [2] and in assay [3] were 101 nM and 4.4 nM, respectively.

Regarding `N#Cc1ccc(CNC(=O)c2ccc3n(c2=O)CCN(CC2(S(=O)(=O)N4CC(F)(F)C4)CC2)C3=O)cc1` [Example 84-1, N-(4-cyanobenzyl)-2-((1-((3,3-difluoroazetidin-1-yl)sulfonyl)cyclopropyl)methyl)-1,6-dioxo-2,3,4,6-tetrahydro-1H-pyrido[1,2-a]pyrazine-7-carboxamide], the EC50 in assay [1] (setting [4]) is 69.6 nM. Also, the IC50 amounted to 102 nM in assay [2] and 3.9 nM in assay [3].

In the case of `N#Cc1ccc(CNC(=O)c2ccc3n(c2=O)CCN(CC2(S(=O)(=O)N4CC(F)(F)C4)CC2)C3=O)cc1F` [Example 84-2], in assay [1] (setting [4]), the EC50 is 54.8 nM. Moreover, the IC50 came out at 80.6 nM in assay [2] and 2.8 nM in assay [3].

Take `O=C(NCc1ccc(Cl)cc1)c1ccc2n(c1=O)CCN(CC1(S(=O)(=O)N3CC(F)(F)C3)CC1)C2=O` [Example 84-3]: the concentration giving a half-maximal response (EC50) in assay [1] (setting [4]) came to 31 nM. Besides, the half-inhibitory concentration (IC50) in assay [2] came to 52.6 nM; in assay [3] it was 1.4 nM.

As for `Cc1cc(C(=O)NCc2ccc(C#N)cc2)c(=O)n2c1C(=O)N(CC1(S(C)(=O)=O)CC1)CC2` [Example 85, N-(4-cyanobenzyl)-9-methyl-2-((1-(methylsulfonyl)cyclopropyl)methyl)-1,6-dioxo-2,3,4,6-tetrahydro-111-pyrido[1,2-a]pyrazine-7-carboxamide], in assay [1] (setting [5]), the EC50 turned out to be 177 nM. The IC50 was found to be 102 nM in assay [2] and 4.7 nM in assay [3].

With `Cc1cc(C(=O)NCc2ccc(F)cc2)c(=O)n2c1C(=O)N(CC1(S(C)(=O)=O)CC1)CC2` [Example 86-1], in assay [1] (setting [4]), the 50% effective concentration (EC50) came out at 1520 nM. The half-inhibitory concentration (IC50) came out at 287 nM in assay [2] and 11.2 nM in assay [3].

Consider `Cc1cc(C(=O)NCc2ccc(C#N)c(F)c2)c(=O)n2c1C(=O)N(CC1(S(C)(=O)=O)CC1)CC2` [Example 86-2], for which, in assay [1] (setting [4]), the EC50 is 226 nM. The results for the IC50 in assay [2] and in assay [3] were 276 nM and 4.6 nM, respectively.

For `Cc1cc(C(=O)NCc2ccc(Cl)cc2)c(=O)n2c1C(=O)N(CC1(S(C)(=O)=O)CC1)CC2` [Example 86-3], in assay [1] (setting [5]), the EC50 worked out at 34.6 nM. Further, the IC50 in assay [2] is 45.3 nM; in assay [3] it was 1.8 nM.

On to `O=C(NCc1ccc(Cl)cc1)c1ccc2n(c1=O)CCN(CC1(S(=O)(=O)N3CCC3)CC1)C2=O` [Example 87, 2-((1-(azetidin-1-ylsulfonyl)cyclopropyl)methyl)-N-(4-chlorobenzyl)-1,6-dioxo-2,3,4,6-tetrahydro-1H-pyrido[1,2-a]pyrazine-7-carboxamide], for which the concentration giving a half-maximal response (EC50) in assay [1] (setting [4]) was determined as 25.7 nM. Besides, the IC50 turned out to be 35.1 nM in assay [2] and 1.2 nM in assay [3].

Turning to `N#Cc1ccc(CNC(=O)c2ccc3n(c2=O)CCN(CC2(S(=O)(=O)N4CCC4)CC2)C3=O)cc1F` [Example 88-1, 2-((1-(azetidin-1-ylsulfonyl)cyclopropyl)methyl)-N-(4-cyano-3-fluorobenzyl)-1,6-dioxo-2,3,4,6-tetrahydro-1H-pyrido[1,2-a]pyrazine-7-carboxamide], in assay [1] (setting [4]), the concentration for a half-maximal effect (EC50) stood at 24.2 nM. The concentration for half-maximal inhibition (IC50) in assay [2] came to 65.1 nM; in assay [3] it was 2 nM.

As to `N#Cc1ccc(CNC(=O)c2ccc3n(c2=O)CCN(CC2(S(=O)(=O)N4CCC4)CC2)C3=O)cc1` [Example 88-2], the concentration giving a half-maximal response (EC50) in assay [1] (setting [4]) came to 39.5 nM. Also, the half-inhibitory concentration (IC50) was determined as 73.5 nM in assay [2] and 3.2 nM in assay [3].
